Results from patent US20210115104A1, “AMYLIN ANALOGUES” (Zealand Pharma A/S, priority 2015, published 2021).
*1 amine or outer side, *2 acyl side, *3 side chain or, on linkers, in order; H or OH if unused. Where a SMILES comes first, the peptide text is derived from it. Bridges are numbered along the chain shown (N, C = ends). [ ]: non-standard residue; d: D form. The star is where a group is joined. C20 diacid = O=C(O)CCCCCCCCCCCCCCCCCCC(=O)*; γGlu = O=C(O)[C@H](CCC(=O)[*:2])N[*:1]; Hyp = O=C(O)[C@@H]1C[C@@H](O)CN1; NMeI = CC[C@H](C)[C@H](NC)C(=O)O; Sar = CNCC(=O)O

Key:
[1] = target: T1, human calcitonin receptor (hCTR2) (Homo sapiens, UniProt P30988); assay: hCTR2 cAMP assay (AlphaScreen) in COS7 cells; format: cell-based; details: cAMP induction, COS7 cells expressing hCTR2; Table 1; read-out: hCTR2 EC50
T1 construct: expressed in transfected cells
T1 sequence (P30988 25-474): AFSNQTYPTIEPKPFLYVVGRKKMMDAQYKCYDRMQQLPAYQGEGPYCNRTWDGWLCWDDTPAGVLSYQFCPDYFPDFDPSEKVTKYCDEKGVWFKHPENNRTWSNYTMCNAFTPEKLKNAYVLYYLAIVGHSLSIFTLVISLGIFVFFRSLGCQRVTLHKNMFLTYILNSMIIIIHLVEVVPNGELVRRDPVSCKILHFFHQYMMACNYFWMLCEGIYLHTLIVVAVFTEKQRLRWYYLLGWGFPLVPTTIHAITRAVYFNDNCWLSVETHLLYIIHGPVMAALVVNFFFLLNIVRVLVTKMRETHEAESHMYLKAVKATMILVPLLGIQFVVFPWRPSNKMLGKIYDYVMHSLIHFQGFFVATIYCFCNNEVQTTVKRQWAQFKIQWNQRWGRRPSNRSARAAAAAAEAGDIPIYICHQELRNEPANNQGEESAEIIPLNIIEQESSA
Text: The cell line COS7, originating from African Green Monkey kidney fibroblast cells, was used for establishment of the stable cell lines described below. The COS7 cellular background was used due to it being RAMP naïve, and as such it provides the best available system for testing of the monomeric hCTR and different heterodimeric amylin receptor subtypes functionally generated by introduction of the individual RAMPs.
A cell line expressing the human calcitonin receptor (hCTR2) was generated in the COS7 cellular background as stable clones. In brief, hCTR2 (GI: 4502547) was amplified by PCR using primers encoding terminal restriction sites for subcloning. The 5′-end primers additionally encoded a near Kozak consensus sequence to ensure efficient translation. The fidelity of the DNA encoding the receptor was confirmed by DNA sequencing. The PCR products encoding the receptor were subcloned into a mammalian expression vector containing a neomycin (G418) resistance marker. The mammalian expression vector encoding the receptor was transfected into COS7 cells by a standard liposome transfection method. 48 hours post-transfection, cells were seeded for limited dilution cloning and selected with 1 mg/ml G418 in the culture medium. After 3 weeks, surviving colonies of hCTR2-expressing cells were picked, propagated and tested in the amylin efficacy assay as described in Example 3 below. One hCTR2-expressing clone was chosen for compound profiling.
In vitro activity of test peptides at the hCTR2 and hAMYR3 receptors was assessed by measuring the induction of cAMP following stimulation of the receptor using the AlphaScreen® cAMP Assay kit from Perkin-Elmer.
Briefly, COS7 cells expressing hCTR2 (see Example 2, above) were seeded at 30-40,000 cells per well in 96-well microtiter plates coated with 0.01% poly-L-lysine, and grown for 1 day in culture in 100 μl growth medium [DMEM, 10% FCS, Penicillin (100 IU/ml), Streptomycin (100 μg/ml)]. On the day of analysis, growth medium was removed and the cells were washed once with 200 μl Tyrode buffer [Tyrode's Salts (9.6 g/I), 10 mM HEPES, pH 7.4]. Cells were incubated in 100 μl Tyrode buffer containing increasing concentrations of test peptides, 100 µM IBMX and 0.1% casein for 15 min at 37° C. The reaction was stopped by carefully decanting off the compound/buffer medium and replacing it with lysis/detection buffer (80 μl 0.1% w/v BSA, 5 mM HEPES, 0.3% v/v Tween-20 in deionized water). After incubation at room temperature for 10 min., the cAMP content of the resulting cell lysate was estimated according to the AlphaScreen® cAMP Assay manufacturer's instructions. EC50 values were estimated by computer-aided curve fitting using the 4-parameter logistic (4PL) non-linear model.

[2] = Assessment of physical stability (Thioflavin T fibrillation); format: physicochemical; parameters: key: FND = fibrillation not detected; FD = fibrillation detected; details: 1 mg/ml, 40° C., ThT; for Fibrillation pH 4.0 (Ac): 50 mM acetate buffer pH 4.0, 96 hours; for Fibrillation pH 7.0 (His): 50 mM histidine buffer pH 7.0, 96 hours; for Fibrillation pH 7.0 (Phos.): 50 mM phosphate buffer pH 7.0, 96 hours
How it was run: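 1 mg/ml peptide with 40 μM ThT in 50 mM phosphate pH 7.0, 50 mM histidine pH 7.0 or 50 mM acetate pH 4.0, in triplicate. Fluorescence read every 10 min after 300 s agitation over 96 h at 40 °C. Lag-time (h) is the intersection of linear fits to stable and growth phases.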

[3] = Assessment of chemical stability (RP-HPLC normalized purity); format: physicochemical; details: 7 days, 40° C., Table 1; for Normalized purity after 7 days, 40° C., pH 4: pH 4, 0.2 mg/ml; for Normalized purity after 7 days, 40° C., pH 6: pH 6, 0.2 mg/ml; for Normalized purity after 7 days, 40° C., pH 7.5: pH 7.5, 0.2 mg/ml; for Normalized purity after 7 days, 40° C., pH 9: pH 9, 0.2 mg/ml
How it was run: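 Peptides at 0.2 mg/ml in water adjusted to pH 4, 6, 7.5 or 9, incubated at 40° C for 7 days. Main-peak area-% by RP-HPLC (C8 ammonium formate or C18 TFA gradient, UV 220 nm), normalized to T=0 as 100.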

In the case of `CC[C@H](C)[C@@H](C(=O)N[C@@H](CC(C)C)C(=O)N[C@@H](CO)C(=O)N[C@@H](CO)C(=O)N[C@H](C(=O)N[C@@H](CCC(=O)O)C(=O)N[C@H](C(=O)NCC(=O)N[C@@H](CO)C(=O)N[C@@H](CC(N)=O)C(=O)N[C@H](C(=O)N1CCC[C@H]1C(N)=O)[C@@H](C)O)C(C)C)[C@@H](C)O)N(C)C(=O)[C@H](C)NC(=O)CN(C)C(=O)[C@H](Cc1ccccc1)NC(=O)[C@H](CO)NC(=O)[C@H](CO)NC(=O)[C@H](CCCNC(=N)N)NC(=O)[C@H](Cc1c[nH]cn1)NC(=O)[C@H](CC(C)C)NC(=O)[C@H](Cc1ccccc1)NC(=O)[C@H](Cc1c[nH]cn1)NC(=O)[C@H](C)NC(=O)[C@H](CC(C)C)NC(=O)[C@H](CCCNC(=N)N)NC(=O)[C@H](CCC(N)=O)NC(=O)[C@@H](NC(=O)[C@H](C)NC(=O)[C@@H]1CSSC[C@H](NC(=O)[C@H](CCCNC(=N)N)NC(=O)CC[C@H](NC(=O)CCCCCCCCCCCCCCCCCCC(=O)O)C(=O)O)C(=O)N[C@@H](CC(N)=O)C(=O)N[C@@H]([C@@H](C)O)C(=O)N[C@@H](C)C(=O)N[C@@H]([C@@H](C)O)C(=O)N1)[C@@H](C)O` [Compound 16, [19CD]-isoGlu-R-C( )-NTAT-C( )-ATQRLAHFLHRSSF-Gly(Me)-A-Ile(Me)-LSSTEVGSNTP-NH2] ({C20 diacid-γGlu}-RCNTATCATQRLAHFLHRSSF[Sar]A[NMeI]LSSTEVGSNTP-NH2; disulfide 2-7), the EC50 [1] is reported as 0.073 nM, the “Fibrillation pH 4.0 (Ac)” value [2] is reported as “FD” and the “Fibrillation pH 7.0 (His)” value [2] is reported as “FD”. For the same molecule, the “Fibrillation pH 7.0 (Phos.)” value [2] was “FND”, the “Normalized purity after 7 days, 40° C., pH 4” value [3] was “A (A = >90%)” and the “Normalized purity after 7 days, 40° C., pH 6” value [3] was “A (A = >90%)”. The “Normalized purity after 7 days, 40° C., pH 7.5” value [3] was “A (A = >90%)” and the “Normalized purity after 7 days, 40° C., pH 9” value [3] was “B (B = 70-90%)”.

In the case of `CC[C@H](C)[C@@H](C(=O)N[C@@H](CC(C)C)C(=O)N[C@@H](CO)C(=O)N[C@@H](CO)C(=O)N[C@H](C(=O)N[C@@H](CCC(=O)O)C(=O)N[C@H](C(=O)NCC(=O)N[C@@H](CO)C(=O)N[C@@H](CC(N)=O)C(=O)N[C@H](C(=O)N1C[C@H](O)C[C@H]1C(N)=O)[C@@H](C)O)C(C)C)[C@@H](C)O)N(C)C(=O)[C@H](C)NC(=O)CN(C)C(=O)[C@H](Cc1ccccc1)NC(=O)[C@H](CO)NC(=O)[C@H](CO)NC(=O)[C@H](CCCNC(=N)N)NC(=O)[C@@H](NC(=O)[C@H](CC(C)C)NC(=O)[C@H](Cc1ccccc1)NC(=O)[C@H](Cc1c[nH]cn1)NC(=O)[C@H](C)NC(=O)[C@H](CC(C)C)NC(=O)[C@H](CCCNC(=N)N)NC(=O)[C@H](CCC(=O)O)NC(=O)[C@@H](NC(=O)[C@H](C)NC(=O)[C@@H]1CSSC[C@H](NC(=O)[C@H](CCCNC(=N)N)NC(=O)CC[C@H](NC(=O)CCCCCCCCCCCCCCCCCCC(=O)O)C(=O)O)C(=O)NCC(=O)N[C@@H]([C@@H](C)O)C(=O)N[C@@H](C)C(=O)N[C@@H]([C@@H](C)O)C(=O)N1)[C@@H](C)O)[C@@H](C)O` [Compound 18, [19CD]-isoGlu-R-C( )-GTAT-C( )-ATERLAHFLTRSSF-Gly(Me)-A-Ile(Me)-LSSTEVGSNT-Hyp-NH2] ({C20 diacid-γGlu}-RCGTATCATERLAHFLTRSSF[Sar]A[NMeI]LSSTEVGSNT[Hyp]-NH2; disulfide 2-7), the EC50 [1] is reported as 0.12 nM, the “Fibrillation pH 4.0 (Ac)” value [2] is reported as “FND” and the “Fibrillation pH 7.0 (His)” value [2] is reported as “FD”. The “Fibrillation pH 7.0 (Phos.)” value [2] was “FD”.

With `CC[C@H](C)[C@@H](C(=O)N[C@@H](CC(C)C)C(=O)N[C@@H](CO)C(=O)N[C@@H](CO)C(=O)N[C@H](C(=O)N[C@@H](CCC(=O)O)C(=O)N[C@H](C(=O)NCC(=O)N[C@@H](CO)C(=O)N[C@@H](CC(N)=O)C(=O)N[C@H](C(=O)N1C[C@H](O)C[C@H]1C(N)=O)[C@@H](C)O)C(C)C)[C@@H](C)O)N(C)C(=O)[C@H](C)NC(=O)CN(C)C(=O)[C@H](Cc1ccccc1)NC(=O)[C@H](CO)NC(=O)[C@H](CO)NC(=O)[C@H](CCCNC(=N)N)NC(=O)[C@H](CCC(N)=O)NC(=O)[C@H](CC(C)C)NC(=O)[C@H](Cc1ccccc1)NC(=O)[C@H](Cc1c[nH]cn1)NC(=O)[C@H](C)NC(=O)[C@H](CC(C)C)NC(=O)[C@H](CCCNC(=N)N)NC(=O)[C@H](CCC(N)=O)NC(=O)[C@@H](NC(=O)[C@H](C)NC(=O)[C@@H]1CSSC[C@H](NC(=O)[C@H](CCCNC(=N)N)NC(=O)CC[C@H](NC(=O)CCCCCCCCCCCCCCCCCCC(=O)O)C(=O)O)C(=O)N[C@@H](CC(N)=O)C(=O)N[C@@H]([C@@H](C)O)C(=O)N[C@@H](C)C(=O)N[C@@H]([C@@H](C)O)C(=O)N1)[C@@H](C)O` [Compound 58, [19CD]-isoGlu-R-C( )-NTAT-C( )-ATQRLAHFLQRSSF-Gly(Me)-A-Ile(Me)-LSSTEVGSNT-Hyp-NH2] ({C20 diacid-γGlu}-RCNTATCATQRLAHFLQRSSF[Sar]A[NMeI]LSSTEVGSNT[Hyp]-NH2; disulfide 2-7) the EC50 [1] was 0.05 nM, the “Fibrillation pH 4.0 (Ac)” value [2] was “FND” and the “Fibrillation pH 7.0 (His)” value [2] was “FD”. For the same molecule, the “Fibrillation pH 7.0 (Phos.)” value [2] was “FND”, the “Normalized purity after 7 days, 40° C., pH 4” value [3] was “A (A = >90%)” and the “Normalized purity after 7 days, 40° C., pH 6” value [3] was “A (A = >90%)”. The “Normalized purity after 7 days, 40° C., pH 7.5” value [3] was “B (B = 70-90%)” and the “Normalized purity after 7 days, 40° C., pH 9” value [3] was “B (B = 70-90%)”.

In the case of `CC[C@H](C)[C@@H](C(=O)N[C@@H](CC(C)C)C(=O)N[C@@H](CO)C(=O)N[C@@H](CO)C(=O)N[C@H](C(=O)N[C@@H](CCC(=O)O)C(=O)N[C@H](C(=O)NCC(=O)N[C@@H](CO)C(=O)N[C@@H](CO)C(=O)N[C@H](C(=O)N1CCC[C@H]1C(N)=O)[C@@H](C)O)C(C)C)[C@@H](C)O)N(C)C(=O)[C@H](C)NC(=O)CN(C)C(=O)[C@H](Cc1ccccc1)NC(=O)[C@H](CO)NC(=O)[C@H](CO)NC(=O)[C@H](CCCNC(=N)N)NC(=O)[C@H](CCC(=O)O)NC(=O)[C@H](CC(C)C)NC(=O)[C@H](Cc1ccccc1)NC(=O)[C@H](Cc1c[nH]cn1)NC(=O)[C@H](C)NC(=O)[C@H](CC(C)C)NC(=O)[C@H](CCCNC(=N)N)NC(=O)[C@H](CCC(N)=O)NC(=O)[C@@H](NC(=O)[C@H](C)NC(=O)[C@@H]1CSSC[C@H](NC(=O)[C@H](CCCNC(=N)N)NC(=O)CC[C@H](NC(=O)CCCCCCCCCCCCCCCCCCC(=O)O)C(=O)O)C(=O)N[C@@H](CC(N)=O)C(=O)N[C@@H]([C@@H](C)O)C(=O)N[C@@H](C)C(=O)N[C@@H]([C@@H](C)O)C(=O)N1)[C@@H](C)O` [Compound 84, [19CD]-isoGlu-R-C( )-NTAT-C( )-ATQRLAHFLERSSF-Gly(Me)-A-Ile(Me)-LSSTEVGSSTP-NH2] ({C20 diacid-γGlu}-RCNTATCATQRLAHFLERSSF[Sar]A[NMeI]LSSTEVGSSTP-NH2; disulfide 2-7), the EC50 [1] is reported as 0.15 nM.
